The values below come from patent publication US11364247B2, “Methods of treatment of partial onset seizures using eslicarbazepine acetate” (BIAL-PORTELA & CA S.A., priority 2005, dated 2022).

A short description of series [1]: Metabolic profile in liver microsomes, chiral analysis. The class given is in vitro ADME. To be noted: liver microsomes from rats, dogs, monkeys and humans, not the R(−) form. (In general: Liver microsomes are vesicles of endoplasmic reticulum, rich in cytochrome P450 enzymes.)
For series [2], the system named is refractory partial epilepsy (partial-onset seizures). Briefly: Study in epileptic patients: efficacy as adjunctive therapy. The class given is in vivo, human. Particulars: once-daily group compared with the other groups. As for the experimental part:
This clinical trial was a double-blind, randomized, placebo-controlled study performed by 20 centers in Croatia, Czech Republic, Germany, Lithuania and Poland. The stated objectives of the study were to assess the efficacy and safety of BIA 2-093 as adjunctive therapy in patients with refractory partial epilepsy. […] For the first 4 weeks, daily dose was 400 mg. Then, daily doses were increased to 800 mg (weeks 5-8), and finally to 1200 mg (weeks 9-12). Tablets with strengths of 200 mg, 400 mg, and 600 mg eslicarbazepine acetate and placebo tablets were manufactured by […] do Coronado, Portugal) in accordance with Good Manufacturing Practice. […] See, […] and Almeida II. The proportion of patients with a 50% or greater reduction in seizure frequency in the treatment period compared to the baseline period in the intention-to-treat (ITT) population (n=143) was the primary efficacy endpoint. […] The proportion of responders in the once-daily group (54%) was also higher than in the twice-daily (41%) group. […] At this dose level, no significant difference was found between the twice-daily and the placebo groups. Secondary endpoints include the reduction in total seizure frequency, proportion of seizure-free patients, distribution of responders, comparison of once and twice daily regimens, and investigator's and patient's global evaluation.

In series [3] the test system is voltage-gated sodium channel (VGSC). To be noted: compared with carbamazepine; cited from earlier work.
Series [4] can be described thus: Study in epileptic patients: trough plasma concentrations of BIA 2-005. The class given is in vivo, human. The source says:
This clinical trial was a double-blind, randomized, placebo-controlled study performed by 20 centers in Croatia, Czech Republic, Germany, Lithuania and Poland. The stated objectives of the study were to assess the efficacy and safety of BIA 2-093 as adjunctive therapy in patients with refractory partial epilepsy. In total, 143 patients aged 18-65 years with at least 4 partial-onset seizures per month in spite of treatment with 1 or 2 antiepileptic drugs (AEDs) (e.g., phenytoin, valproate, primidone, phenobarbital, lamotrigine, gabapentin, topiramate or clonazepam) were randomly assigned to one of three groups: treatment with placebo (n=47), BIA 2-093 once-daily (n=50), or BIA 2-093 twice-daily (n=46), during 12 weeks (plus 1 week of tapering off). For the first 4 weeks, daily dose was 400 mg. Then, daily doses were increased to 800 mg (weeks 5-8), and finally to 1200 mg (weeks 9-12). Tablets with strengths of 200 mg, 400 mg, and 600 mg eslicarbazepine acetate and placebo tablets were manufactured by BIAL (S. Mamede do Coronado, Portugal) in accordance with Good Manufacturing Practice. The assay plasma to determine the concentration of BIA 2-005 was performed with a non-chiral method using isocratic liquid chromatography (LC) with single quadrupole mass spectrometric detection (MS), as described herein. See, e.g., Almeida I and Almeida II.
Plasma/serum samples for the “trough” (pre-dose) levels of BIA 2-005 and concomitant AEDs were collected at all visits but V5 (post-study visit). The objective was to characterize the influence of eslicarbazepine acetate on the pharmacokinetic behavior of the concomitant AEDs (e.g., phenytoin, valproate, primidone, phenobarbital, lamotrigine, gabapentin, topiramate, and clonazepam).

Series [5] is described as follows: Entry-into-man studies in healthy subjects (Almeida I, Almeida II), plasma and urine pharmacokinetics. Format: in vivo, human. The source says: Studies in humans have shown that, after oral administration, eslicarbazepine acetate appears to be rapidly and extensively metabolized to the active metabolite eslicarbazepine and, in a minor extent, to R-licarbazepine. See Silveira et al., “BIA 2-093 Pharmacokinetics in Healthy Elderly Subjects,” Epilepsia, 45 (suppl. 3), 157 (2004). […] See Almeida I; Almeida, L. & Soares-da-Silva, P., “Safety, Tolerability and Pharmacokinetic Profile of BIA 2-093, a Novel Putative Antiepileptic Agent, during First Administration to Humans,” Drugs R&D, 4, 269-284 (2003) (herein referred to as “Almeida II”).
The inventors performed entry-into-man studies in healthy subjects, the results of which they described in the Almeida I and Almeida II articles, both of which are hereby incorporated by reference. In these studies, the healthy subjects received a single oral dose of eslicarbazepine acetate wherein the dose ranged from 20 mg to 1200 mg (see Almeida II), and multiple daily-doses of eslicarbazepine acetate ranging from 200 mg twice-daily to 1200 mg once-daily (see Almeida I). Further studies (not yet published) by the inventors have investigated higher doses of eslicarbazepine acetate, including, for example, doses ranging up to 2400 mg once-daily.

The nature of series [6]: Trial A: steady-state pharmacokinetics of once-daily and twice-daily regimens in healthy volunteers. The class given is in vivo, human. To be noted: arithmetic mean; for AUC0-t / AUC0-∞ / Cmax / t1/2 / tmax: after last dose (8 days). As for the experimental part: This human pharmacology trial was a study to investigate the steady-state pharmacokinetics of once-daily and twice-daily regimens of eslicarbazepine acetate in healthy subjects. The study was a single center, open-label, randomized, two-way crossover study in 12 healthy volunteers (6 males and 6 females) that consisted of two 8-day treatment periods separated by a washout period of 10-15 days. […] Tablets with a strength of 450 mg of eslicarbazepine acetate, manufactured by BIAL (S. Mamede do Coronado, Portugal) in accordance with Good Manufacturing Practice, were used.
Blood samples for drug plasma assays were taken at the following times: […]
Blood samples were drawn either by direct venipuncture or via an intravenous catheter into lithium heparin tubes and centrifuged at approximately 1500 g for 10 minutes at 4° C. The resulting plasma was separated into 2 equal aliquots of 1 mL and stored at −20° C. until required for analysis.
Plasma concentrations of eslicarbazepine acetate, eslicarbazepine, and R-licarbazepine were determined using isocratic liquid chromatography (LC) with single quadrupole mass spectrometric detection (MS).
The method involved the addition of 500 μL of approximately 0.5 μg/mL of 10,11-dihydrocarbamazepine (internal standard prepared in acetonitrile:water, 3:97, v:v) to 250 μL of plasma (centrifuged at 1800 rpm, prior to analysis) in a polypropylene tube. After vortex mixing for 10 seconds, the mixture was transferred to a Schleicher and Schuell C18/100 mg 96 well solid phase extraction plate. Each well was preconditioned with 800 μL methanol, followed by 800 μL acetonitrile and 800 μL acetonitrile:water (3:97, v:v) prior to application of the total sample volume. Each polypropylene tube was then washed with 500 μL acetonitrile:water (3:97, v:v) and the washings transferred to the respective well. The compounds were eluted into a collection plate with 750 μL acetonitrile and the extract evaporated to dryness under oxygen-free nitrogen, at 40° C. All solid phase extraction manipulations were undertaken using the Tomtec QUADRA 96® Model 320 system and a vacuum was applied at each elution step. The final extract was reconstituted in 100 μL of water:methanol (90:10, v:v) and mixed. The collection plate was then centrifuged at approximately 3000 rpm (at approximately 4° C., for approximately 10 minutes) prior to analysis. An aliquot of the final extract (10 μL) was injected onto the LC-MS system.
The LC-MS system used in the analysis consisted of a Perkin Elmer series 200 micro pump, a Perkin Elmer series 200 autosampler, and a Perkin Elmer/Sciex API 150EX single quadrupole mass spectrometer fitted with a Turbo IonSpray® source. Separation was achieved using a LichroCART 250-4 ChiraDex column (β-cyclodextrin, 5 μm), a LichroCART 4-4 ChiraDex column guard column (β-cyclodextrin, 5 μm), a Jones Chromatography 7971 column heater at 50° C., a mobile phase A (0.2 mM sodium acetate, aq) and a mobile phase B (0.2 mM sodium acetate, MeOH). The MS detector was operated in positive ion mode with mass transitions for BIA 2-093, eslicarbazepine, R-licarbazepine, and the internal standard of 319.16 amu (200 ms), 277.08 amu (200 ms), 277.08 amu (200 ms) and 261.05 amu (200 ms), respectively. The limit of quantification of the assay was 10 ng/mL for eslicarbazepine acetate and 100 ng/mL for eslicarbazepine and R-licarbazepine.
Eslicarbazepine acetate, (S)-(−)-10-acetoxy-10,11-dihydro-5H-dibenz/b,f/azepine-5-carboxamide; eslicarbazepine, (S)-(+)-10,11-dihydro-10-hydroxy-5H dibenz/b,f/azepine-5-carboxamide; and R-licarbazepine, (R)-(−)-10,11-dihydro-10-hydroxy-5H dibenz/b,f/azepine-5-carboxamide, were synthesized in the Laboratory of Chemistry, BIAL, with purities>99.5%. The internal standard, 10,11-dihydrocarbamazepine was supplied by Sigma-Aldrich (St. Louis, Mo.).
The pharmacokinetic parameters were derived from non-compartmental analysis using WinNonlin (Version 4.0, Pharsight Corporation, Mountain View, Calif.). […]

Series [7] can be described thus: Trial B: pharmacokinetics following single doses in healthy young male subjects. The class given is in vivo, human. As for the experimental part:
(§1) This human pharmacology trial was a study to determine the pharmacokinetics of eslicarbazepine acetate following single and repeated doses. The study integrated the results of three double-blind, randomized, placebo-controlled trials. To measure the pharmacokinetics of eslicarbazepine acetate following single doses, oral single doses of eslicarbazepine acetate ranging from 20 mg to 2400 mg were administered to healthy young male subjects (6 subjects per dose). The pharmacokinetics of eslicarbazepine acetate following repeated doses were measured by administering repeated oral doses ranging from 400 mg to 2400 mg of eslicarbazepine acetate to healthy young male subjects (6 subjects per dose) over a period of 8 days. Analytical test methods and experimental procedures were similar to those described for Trial A above.

The nature of series [8]: Trial B: pharmacokinetics following repeated once-daily doses over 8 days in healthy young male subjects. The class given is in vivo, human. Particulars: for tmax: male, human, plasma, oral, read-out: Median tmax. Here is the method: as §1
Where [9] appears, read: multiple oral dose of 900 mg eslicarbazepine acetate once-daily.
Setting [10] is: multiple oral dose of 900 mg eslicarbazepine acetate twice-daily.
[11] abbreviates: single oral dose of 1200 mg eslicarbazepine acetate.

As for `CC(=O)O[C@H]1Cc2ccccc2N(C(N)=O)c2ccccc21` [eslicarbazepine acetate, (S)-(−)-10-acetoxy-10,11-dihydro-5H-dibenz/b,f/azepine-5-carboxamide], the metabolite formed result in series [1] was “S(+) enantiomer of licarbazepine”. In series [2], the “assessment of efficacy by the investigator (CGI) and of acceptability by patient” value is recorded as “rated best”. Besides, the “affinity for the resting state of the sodium channel, lower than that of carbamazepine” value in series [3] is “about 3 fold”.
Turning to `NC(=O)N1c2ccccc2CC(O)c2ccccc21` (stereo not drawn) [BIA 2-005], the “trough plasma concentration, mean (sd)” value in series [4] (400 mg/day eslicarbazepine acetate, b.i.d. group) is given as 4.9 (2.3) μg/mL; in series [4] (400 mg/day eslicarbazepine acetate, o.d. group), 4.0 (3.2) μg/mL; in series [4] (800 mg/day eslicarbazepine acetate, b.i.d. group) it was 13.5 (9.6) μg/mL; in series [4] (800 mg/day eslicarbazepine acetate, o.d. group), 10.7 (7.0) μg/mL; in series [4] (1200 mg/day eslicarbazepine acetate, b.i.d. group) it was 15.5 (8.8) μg/mL; in series [4] (1200 mg/day eslicarbazepine acetate, o.d. group), 14.6 (8.8) μg/mL. In series [5] (BIA 2-005, healthy subjects), the “mean renal clearance from plasma” value was in the range of 20 to 30 mL/min. Besides, the “extent of systemic exposure” value in series [5] (BIA 2-005 after oral eslicarbazepine acetate, healthy subjects) is recorded as “approximately dose-proportional”.
As for `NC(=O)N1c2ccccc2C[C@@H](O)c2ccccc21` [R-licarbazepine, (R)-(−)-10,11-dihydro-10-hydroxy-5H dibenz/b,f/azepine-5-carboxamide], in series [6] (setting [9]), the AUC0-t is recorded as 19,600 ng · h/mL, the “AUC0-∞” value was 23989 ng·h/mL, the Cmax (commonly the maximum level reached in the sampled fluid or tissue) was 674 ng/mL and the t1/2 is reported as 15.0 h. Besides, the tmax in series [6] (setting [9]) was 9.42 h. Also, the AUC0-τ in series [6] (multiple oral dose of 900 mg eslicarbazepine acetate once-daily, dosing interval 24 hours) was 13397 ng·h/mL. Also, in series [6] (setting [10]), the AUC0-t was 19,661 ng · h/mL, the “AUC0-∞” value amounted to 23807 ng·h/mL, the peak concentration (Cmax) is given as 718 ng/mL and the t1/2 is given as 14.8 h. Further, the tmax in series [6] (setting [10]) was found to be 6.40 h. Besides, the AUC0-τ in series [6] (multiple oral dose of 900 mg eslicarbazepine acetate twice-daily, dosing interval 12 hours) worked out at 7783 ng·h/mL.
Turning to `NC(=O)N1c2ccccc2C[C@H](O)c2ccccc21` [eslicarbazepine, (S)-(+)-10,11-dihydro-10-hydroxy-5H dibenz/b,f/azepine-5-carboxamide], in series [7] (male, human, plasma, single oral dose of 2400 mg eslicarbazepine acetate, read-out: Mean AUC0-24 h), the AUC0-t came to 446000 ng·h/mL. In addition, the “Mean apparent t1/2” value in series [7] (single oral dose of 20 mg eslicarbazepine acetate) worked out at 9.1 h; in series [7] (single oral dose of 2400 mg eslicarbazepine acetate) it was 11.1 h. Further, the Median tmax in series [7] (single oral dose of 400 mg eslicarbazepine acetate), in series [7] (single oral dose of 600 mg eslicarbazepine acetate) and in series [7] (setting [11]) was 4 h throughout. For the same molecule, in series [7] (setting [11]), the “Mean AUC0-24 h” value was 285,700 ng · h/mL. Further, the “Mean Cmax” value in series [8] (last dose of 8-day repeated 800 mg o.d. eslicarbazepine acetate) is recorded as 18,700 ng/mL. Moreover, the tmax in series [8] (last dose of 8-day repeated 1800 mg o.d. eslicarbazepine acetate) and in series [8] (last dose of 8-day repeated 2400 mg o.d. eslicarbazepine acetate) was 2 h each time.
